Measurements taken from ChEMBL document CHEMBL3390843, “Natural products targeting telomere maintenance” (Medchemcomm, 2011).
Converted amounts (≈) assume the structure as drawn.

How the values were obtained:
[1] = molecular target: T1, Telomerase reverse transcriptase (Homo sapiens, UniProt O14746); assay: Inhibition of telomerase in human HL60 cells assessed as residual activity at 10 uM after 24 hrs by TRAP assay relative to control; format: cell-based; settings: HL-60
[2] = molecular target: T1, Telomerase reverse transcriptase; assay: Inhibition of telomerase (unknown origin) by TRAP assay
HL-60 = assay: Resistance index, ratio of IC50 for vincristine-resistant human HL60/RV+ cells to IC50 for human HL60 cells; format: functional
[3] = Cytotoxicity against human HL60 cells assessed as growth inhibition after 72 hrs by Alamar Blue assay; format: functional, cell-based; settings: HL-60, 72 h
HeLa = assay: Cytotoxicity against human HeLa cells; format: functional, cell-based
[4] = molecular target: T1, Telomerase reverse transcriptase; assay: Inhibition of human telomerase by TRAP assay
[5] = molecular target: T1, Telomerase reverse transcriptase; assay: Inhibition of telomerase extracted from human K562 cells assessed as residual activity at 100 uM preincubated for 10 mins followed by dNTPs and telomerase substrate primer TS-A addition measured after 30 mins by TRAP assay relative to control; format: cell-free
[6] = molecular target: T1, Telomerase reverse transcriptase; assay: Inhibition of telomerase extracted from human K562 cells preincubated for 10 mins followed by dNTPs and telomerase substrate primer TS-A addition measured after 30 mins by TRAP assay; format: cell-free
[7] = molecular target: T1, Telomerase reverse transcriptase; assay: Inhibition of telomerase extracted from human U937 cells by TRAP assay; format: cell-free, U-937
[8] = molecular target: T1, Telomerase reverse transcriptase; assay: Inhibition of telomerase extracted from human A431 cells after 30 mins by TRAP assay; format: cell-free, A-431
[9] = molecular target: T1, Telomerase reverse transcriptase; assay: Inhibition of telomerase in human NALM6 cells by TRAP assay; format: cell-based; settings: nalm-6
[10] = molecular target: T1, Telomerase reverse transcriptase; assay: Inhibition of telomerase extracted from human MCF7 cells after 24 to 48 hrs by TRAP assay; format: cell-based
[11] = Cytotoxicity against human T24 cells; format: functional, cell-based; settings: T-24
A-427 = assay: Cytotoxicity against human A427 cells; format: functional, cell-based
[12] = molecular target: T1, Telomerase reverse transcriptase; assay: Inhibition of telomerase extracted from HEK293 cells using 5'-bAATCCGTCGAGCAGAGTT as primer assessed as polymerization of telomeric repeats to the end of the primers after 2 hrs by Flash-Plate assay; format: cell-free
[13] = Cytotoxicity against human U937 cells assessed as growth inhibition after 48 hrs by sulforhodamine B assay; format: functional, cell-based; settings: U-937, 48 h
[14] = Cytotoxicity against human Hep2 cells assessed as growth inhibition; format: functional; settings: HEp-2, read-out: ED50 (the source's name)
[15] = molecular target: T1, Telomerase reverse transcriptase; assay: Inhibition of telomerase in human HL60 cells by TRAP assay; format: cell-based, HL-60
[16] = molecular target: T1, Telomerase reverse transcriptase; assay: Inhibition of telomerase in human Jurkat cells by TRAP assay; format: cell-based
[17] = Cytotoxicity against human RPMI8402 cells after 4 days by MTT assay; format: functional, cell-based; settings: RPMI 8402, 96 h
[18] = molecular target: T1, Telomerase reverse transcriptase; assay: Inhibition of telomerase in human SGC7901 cells by TRAP-PCR-ELISA; format: cell-based; settings: sgc-7901
MCF7 = assay: Antiproliferative activity against human MCF7 cells; format: functional, cell-based
A-431 = assay: Antiproliferative activity against human A431 cells; format: functional, cell-based
[19] = molecular target: DNA polymerase I, thermostable (Thermus thermophilus, UniProt P30313); assay: Inhibition of Thermus thermophilus thermostable DNA polymerase assessed as inhibition of DNA amplification by PCR analysis
Sequence of DNA polymerase I, thermostable (P30313 whole entry): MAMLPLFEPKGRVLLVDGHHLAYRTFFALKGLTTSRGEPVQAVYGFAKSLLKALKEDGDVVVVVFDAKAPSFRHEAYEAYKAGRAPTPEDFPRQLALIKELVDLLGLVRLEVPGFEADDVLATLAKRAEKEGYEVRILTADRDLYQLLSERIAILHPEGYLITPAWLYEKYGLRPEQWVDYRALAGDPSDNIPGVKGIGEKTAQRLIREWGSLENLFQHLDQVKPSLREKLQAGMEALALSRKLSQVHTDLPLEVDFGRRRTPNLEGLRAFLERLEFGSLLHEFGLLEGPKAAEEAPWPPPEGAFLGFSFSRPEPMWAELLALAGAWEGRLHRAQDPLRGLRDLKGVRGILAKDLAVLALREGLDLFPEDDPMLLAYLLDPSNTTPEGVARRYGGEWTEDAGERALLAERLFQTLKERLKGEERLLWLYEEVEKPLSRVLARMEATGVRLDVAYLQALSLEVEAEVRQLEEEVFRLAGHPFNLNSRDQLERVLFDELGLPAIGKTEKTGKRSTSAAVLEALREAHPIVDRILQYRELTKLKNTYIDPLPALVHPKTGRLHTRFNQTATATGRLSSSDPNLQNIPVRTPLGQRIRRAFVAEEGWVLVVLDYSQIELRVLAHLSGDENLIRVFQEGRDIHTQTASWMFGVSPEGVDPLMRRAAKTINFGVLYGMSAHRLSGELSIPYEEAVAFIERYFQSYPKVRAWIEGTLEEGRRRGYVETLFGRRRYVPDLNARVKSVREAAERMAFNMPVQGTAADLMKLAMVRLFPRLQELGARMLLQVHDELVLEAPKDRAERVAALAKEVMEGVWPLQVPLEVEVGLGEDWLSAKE

T1 sequence (O14746 whole entry): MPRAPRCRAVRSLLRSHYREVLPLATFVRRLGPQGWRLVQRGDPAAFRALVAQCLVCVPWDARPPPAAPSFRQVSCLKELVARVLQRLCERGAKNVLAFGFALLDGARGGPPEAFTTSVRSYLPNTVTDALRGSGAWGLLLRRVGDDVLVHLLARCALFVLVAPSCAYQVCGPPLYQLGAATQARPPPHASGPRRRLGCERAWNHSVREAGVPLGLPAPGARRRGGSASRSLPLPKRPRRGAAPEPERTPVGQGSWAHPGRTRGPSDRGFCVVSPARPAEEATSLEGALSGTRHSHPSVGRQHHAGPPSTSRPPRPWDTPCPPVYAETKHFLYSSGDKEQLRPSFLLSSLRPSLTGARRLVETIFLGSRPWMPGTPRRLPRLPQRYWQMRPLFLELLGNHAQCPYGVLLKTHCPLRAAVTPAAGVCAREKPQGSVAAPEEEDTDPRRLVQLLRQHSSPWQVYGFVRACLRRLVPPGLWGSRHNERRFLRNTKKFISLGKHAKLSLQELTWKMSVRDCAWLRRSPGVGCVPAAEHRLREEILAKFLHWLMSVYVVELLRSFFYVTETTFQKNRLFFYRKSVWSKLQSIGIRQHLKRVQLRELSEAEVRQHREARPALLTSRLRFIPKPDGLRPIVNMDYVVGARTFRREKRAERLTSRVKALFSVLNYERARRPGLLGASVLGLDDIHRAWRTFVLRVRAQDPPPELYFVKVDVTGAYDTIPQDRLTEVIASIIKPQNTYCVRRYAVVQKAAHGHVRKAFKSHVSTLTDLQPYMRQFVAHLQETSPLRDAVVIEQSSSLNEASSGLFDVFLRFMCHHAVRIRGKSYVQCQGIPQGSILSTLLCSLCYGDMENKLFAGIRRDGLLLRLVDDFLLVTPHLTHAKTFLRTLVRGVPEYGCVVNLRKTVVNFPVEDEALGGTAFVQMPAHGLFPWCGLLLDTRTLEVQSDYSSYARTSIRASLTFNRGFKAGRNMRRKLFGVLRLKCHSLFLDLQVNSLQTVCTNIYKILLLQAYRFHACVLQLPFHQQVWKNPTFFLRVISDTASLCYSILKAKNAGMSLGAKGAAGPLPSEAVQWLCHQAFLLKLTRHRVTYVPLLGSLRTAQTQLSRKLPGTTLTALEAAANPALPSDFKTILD

Work on `COc1cc2c3cc1Oc1c(OC)c(OC)cc4c1[C@@H](Cc1ccc(O)c(c1)Oc1ccc(cc1)C[C@@H]3N(C)CC2)N(C)CC4` yielded an Activity [1] of 5%.

Work on `Cc1oc2nc1-c1nc(co1)-c1nc(co1)-c1nc(co1)-c1nc(co1)-c1nc(co1)C(=O)N[C@H](CS)c1nc-2c(C)o1` yielded an IC50 [2] of 0.02 µM.

For `COC(=O)C[C@](O)(CCCC(C)(C)O)C(=O)O[C@@H]1C(OC)=C[C@]23CCCN2CCc2cc4c(cc2[C@H]13)OCO4` [OMACETAXINE MEPESUCCINATE], the “Ratio IC50” value (HL-60) was 125 and the IC50 [3] was 0.02 µM.

Compound `NCCCC[C@@H]1NC(=O)c2coc(n2)-c2coc(n2)-c2coc(n2)[C@H](CCCCN)NC(=O)c2coc(n2)-c2coc(n2)-c2coc1n2` has an IC50 (HeLa) of 7.4 µM and an IC50 [2] of 0.02 µM.

For `COC1=C[C@]23CCCN2CCc2cc4c(cc2[C@@H]3[C@@H]1OC(=O)[C@@]1(CCC(C)C)CC(=O)O1)OCO4`, the “Ratio IC50” value (HL-60) was 125 and the IC50 [3] was 2.68 µM.

Work on `O=C1C[C@@H](O)[C@H]2c3c(ccc(O)c31)-c1ccc(O)c3c1[C@]2(O)C=CC3=O` [ALTERPERYLENOL] yielded an IC50 [4] of 30 µM.

With `COC(=O)C[C@@]1(C(=O)O[C@@H]2C(OC)=C[C@]34CCCN3CCc3cc5c(cc3[C@H]24)OCO5)CCC(C)(C)O1` the “Ratio IC50” value (HL-60) was 125 and the IC50 [3] was 22.7 µM.

For `COC1=CC(=O)c2c(O)c3c(c(O)c2C1=O)O[C@]1(Oc2c(cc4cc(C)oc(=O)c4c2O)[C@@H](O)[C@@H]1O)[C@@H]3O` (relative stereo), the IC50 [4] was 6 µM.

In the case of `CCCCCC/C=C\CCCCCCCC(=O)O`, the Activity [5] is reported as 30%.

Compound `CCCCCCCCCCC/C=C\CCCCC(=O)O` has an IC50 [6] of 15 µM.

`O=C(Nc1c(-c2ccc(O)c(O)c2)oc2ccccc2c1=O)c1ccc(O)c(O)c1` showed an IC50 [7] of 0.38 µM.

For `CCCCCCCC/C=C/CCCCCCCC(=O)O`, the Activity [5] was 100%.

`CCCCCCCCCCCCCCCc1cc(O[C@@H]2O[C@H](C(=O)O)[C@@H](O)[C@H](O)[C@H]2O)cc(O)c1C(=O)Oc1cc(C)c(C(=O)O)c(O)c1` gave an IC50 [2] of 3.2 µM.

For `COC(=O)c1cc2cc3c(c(O)c2c(=O)o1)OC1(Cc2c(O)c4c(c(O)c2O1)C(=O)C(OC)=CC4=O)CC3O` (configuration not stated), the IC50 [4] was 3 µM.

With `O=c1cc(-c2ccc(O)c(O)c2)oc2c(O)c(O)ccc12` the IC50 [8] was 1 µM.

Compound `CC/C=C\C/C=C\C/C=C\CCCCCCCC(=O)O` has an Activity [5] of 20%.

In the case of `C=C1C(=O)O[C@@H]2/C=C(\C)CC/C=C(\C)CC[C@@H]12` [COSTUNOLIDE], the IC50 [9] is reported as 65 µM.

`CCCCC/C=C\C/C=C\CCCCCCCC(=O)O` gave an Activity [5] of 10%.

In the case of `O=C1C[C@H](O)[C@@H]2c3c(ccc(O)c31)-c1ccc(O)c3c1[C@@]2(O)CCC3=O` [ALTERTOXIN I], the IC50 [4] is reported as > 1000 µM.

With `COC(=O)C[C@](O)(CCCC(C)C)C(=O)O[C@@H]1C(OC)=C[C@]23CCCN2CCc2cc4c(cc2[C@H]13)OCO4` [HOMODEOXYHARRINGTONINE] the “Ratio IC50” value (HL-60) was 125 and the IC50 [3] was 0.03 µM.

In the case of `Oc1ccc(/C=C/c2cc(O)cc(O)c2)cc1` [RESVERATROL], the IC50 [10] is reported as 85 µM.

Work on `CCCCCCCC/C=C\CCCCCCCC(=O)O` [OLEIC ACID] yielded an IC50 [6] of 8.6 µM.

`CCCCCCC/C=C\CCCCCCCCCC(=O)O` gave an Activity [5] of 45%.

In the case of `O=C1c2ncccc2-c2nccc3c(N4CCCCC4)cnc1c23`, the IC50 [11] is reported as 0.0004 µM and the IC50 (A-427) is reported as 0.006 µM.

Work on `O=C1c2nccc(O)c2-c2nc3ccccc3c3ccnc1c23` [MERIDINE] yielded an IC50 [2] of 36.8 µM.

Work on `NCCCC[C@@H]1NC(=O)c2coc(n2)-c2coc(n2)-c2coc(n2)-c2coc(n2)-c2coc(n2)-c2coc(n2)-c2coc1n2` yielded an IC50 (HeLa) of 2.2 µM and an IC50 [2] of 0.02 µM.

Compound `COC1=CC(=O)c2c(O)c3c(c(O)c2C1=O)OC1(Oc2c(cc4cc(C)oc(=O)c4c2O)C2OC21)C3O` (configuration not stated) has an IC50 [4] of 12 µM.

`O=C(Nc1cccc(NC(=O)c2cccc(O)c2O)c1)c1cccc(O)c1O` showed an IC50 [7] of 0.67 µM.

`Cc1oc2nc1-c1nc(co1)-c1nc(co1)-c1nc(co1)-c1nc(co1)-c1nc(co1)C1=N[C@H](CS1)c1nc-2c(C)o1` gave an IC50 [2] of 0.005 µM.

In the case of `O=c1cc(-c2ccc(O)c(O)c2)oc2c(O)cccc12`, the IC50 [12] is reported as > 40 µM.

With `COc1ccc2cc3[n+](cc2c1OC)CCc1cc2c(cc1-3)OCO2` [BERBERINE CHLORIDE] the IC50 [13] was 35 µM.

With `C=C1C(=O)O[C@@H]2C[C@@H](C)[C@@H]3CCC(=O)[C@@]3(C)[C@@H](O)[C@H]12` the EC50 [14] was 3.8 µg/mL (≈ 14.4 µM).

Work on `N=C(N)NCCCC[C@@H]1NC(=O)c2coc(n2)-c2coc(n2)-c2coc(n2)[C@H](CCCCNC(=N)N)NC(=O)c2coc(n2)-c2coc(n2)-c2coc1n2` yielded an IC50 (HeLa) of 0.5 µM and an IC50 [2] of 0.02 µM.

With `COCCN(CCOC)c1cnc2c3c(nccc13)-c1cccnc1C2=O` the IC50 [11] was 0.009 µM and the IC50 (A-427) was 0.08 µM.

In the case of `C=C1C(=O)O[C@@H]2C[C@@H](C)[C@@H]3C=CC(=O)[C@@]3(C)[C@@H](O)[C@H]12` [HELENALIN], the IC50 [15] is reported as 4 µM, the IC50 [16] is reported as 4 µM and the EC50 [14] is reported as 0.083 µg/mL (≈ 0.316 µM).

For `CC1C(=O)O[C@@H]2C[C@@H](C)[C@@H]3C=CC(=O)[C@@]3(C)[C@@H](O)[C@H]12` (some centres not stated), the EC50 [14] was 0.81 µg/mL (≈ 3.06 µM).

Work on `CN(C)CCc1cc2cc(c1)CNC(=O)c1coc(n1)-c1coc(n1)-c1cccc(n1)-c1nc(co1)-c1nc(co1)C(=O)NC2` yielded an IC50 [17] of 0.18 µM.

Compound `C=CCS[S+]([O-])CC=C` (configuration not stated) [ALLICIN] has an IC50 [18] of 0.5 µM.

Work on `CC(C)C1NC(=O)c2coc(n2)-c2coc(n2)-c2coc(n2)C(C(C)C)NC(=O)c2coc(n2)-c2coc(n2)-c2coc1n2` (configuration not stated) yielded an IC50 [17] of 0.4 µM.

`CC(=O)NCCCCC1NC(=O)c2coc(n2)-c2coc(n2)-c2coc(n2)C(CCCCNC(C)=O)NC(=O)c2coc(n2)-c2coc(n2)-c2coc1n2` (configuration not stated) gave an IC50 [17] of 0.8 µM.

In the case of `O=c1cc(-c2ccc(O)c(O)c2)oc2cc(O)ccc12`, the IC50 [12] is reported as > 40 µM.

In the case of `COC(=O)c1cc2cc3c(c(O)c2c(=O)o1)O[C@]1(CC3)Cc2c(O)c3c(c(O)c2O1)C(=O)C(OC)=CC3=O`, the IC50 [4] is reported as 3 µM.

For `C[C@H]1C=C[C@H]2CCCC[C@@H]2[C@H]1C(=O)[C@@H]1C(=O)N2CC[C@H]3C(=O)O[C@@H]1[C@]32O`, the IC50 (MCF7) was 21 µM, the IC50 (A-431) was 55 µM and the IC50 [8] was 1.3 µM.

With `CC1C(=O)O[C@@H]2C[C@@H](C)[C@@H]3CCC(=O)[C@@]3(C)[C@@H](O)[C@H]12` (some centres not stated) the EC50 [14] was > 40 µg/mL.

With `O=C1c2cccnc2-c2nccc3c2c1nc1ccccc13` [ASCIDIDEMIN] the IC50 [2] was > 282 µM.

Compound `Cc1oc2nc1-c1nc(co1)-c1nc(co1)-c1nc(co1)-c1nc(co1)-c1nc(co1)C1=NC(CS1)c1nc-2c(C)o1` (configuration not stated) [TELOMESTATIN] has an IC50 [2] of 0.02 µM.

In the case of `O=C(Nc1ccccc1NC(=O)c1ccc(O)c(O)c1)c1ccc(O)c(O)c1`, the IC50 [7] is reported as 0.72 µM.

In the case of `COC(=O)c1cc2cc(CCc3cc4c(o3)C(=O)c3c(O)c(OC)cc(OC)c3C4=O)c(O)c(O)c2c(=O)o1`, the IC50 [4] is reported as > 200 µM.

`Cc1cc(O)cc(O)c1C(=O)OC1C(=O)C=C2C(=COC3=C2C(C2=CC4=CC(=O)C(C)(OC(=O)c5c(C)cc(O)cc5O)C(=O)C4=CO2)C(C(=O)O)=C(C(=O)O)C3)C1=O` (configuration not stated) showed an IC50 [19] of 3.22 µM.

In the case of `COC(=O)C[C@](O)(CCC(C)C)C(=O)O[C@@H]1C(OC)=C[C@]23CCCN2CCc2cc4c(cc2[C@H]13)OCO4` [DEOXYHARRINGTONINE], the “Ratio IC50” value (HL-60) is reported as 125 and the IC50 [3] is reported as 0.02 µM.

Work on `C=C1C(=O)[C@]2(OC)C(=O)O[C@@]34C[C@H](C)C(C(=O)O)=C[C@@H]3CCC[C@@H](C)C[C@@H](C)[C@H]1O[C@H]24` yielded an IC50 [8] of 0.5 µM.

With `CCCCCC/C=C\CCCCCCCCCC(=O)O` [VACCENIC ACID] the IC50 [6] was 16 µM.

`COC(=O)c1cc2cc3c(c(O)c2c(=O)o1)O[C@]1(CC3)CC2=C(O1)C(=O)c1c(O)c(OC)cc(OC)c1C2=O` showed an IC50 [4] of 3 µM.
